Data taken from US12138034B2, “Gastroretentive articles for alcohol sensing” (priority 2020, dated 2024).
“Also recorded” adds a separate entry of the source.

Columns and labels:
Format in all cases: physicochemical
[1] = Stability of drug-polymer pills in SGF (polymer protection metric); details: 3 days in SGF, 37° C., 200 rpm, n=3
Protocol: Drug-polymer pills were incubated in a shaking incubator at 37° C. and 200 rpm in 50 mL of SGF for 3 days with fluid replaced every day. Then, drug-polymer pills were transferred to acetonitrile for extraction of drug from the polymer pill. The average of extracted amount (n=3) was normalized to the average of extracted drug from drug-polymer pills placed directly in acetonitrile (n=3) to yield the polymer protection metric plotted. PCL protects 89.75% of sofosbuvir, 82.39% of daclatasvir, and 87.11% of ribavirin. Silicone protected 98.96% of ledipasvir.

[2] = Stability of DAAs in simulated gastric fluid (SGF, pH=2), HPLC
Protocol: FIGS. 17A-17C show stability of DAAs in simulated gastric fluid (SGF, pH=2), according to one set of embodiments. All DAAs were dissolved in SGF and placed in a shaking incubator (200 rpm, 37° C.). Samples were collected at defined time points for up to 4 weeks and analyzed by HPLC to quantify stability. […] FIG. 17A. Stability of sofosbuvir in SGF. FIG. 17B. Stability of daclatasvir in SGF. FIG. 17C. Stability of ribavirin in SGF. Error bars represent SD for n=3 samples in each group.

[3] = In vitro drug release from individual drug-polymer pills; details: 37° C., 200 rpm, 50 mL fluid; varying PCL molecular weight, coating, drug loading, SA/V ratio, excipients
Excerpt: FIGS. 11A-11E show fabrication and in vitro release of direct-acting antivirals (DAAs) from individual drug-polymer pills, according to one set of embodiments. FIG. 11A. Drug-polymer pills are made by mixing drug with either silicone or poly(ε-caprolactone) (PCL) and then casting into a Petri dish or a three-dimensional (3-D) printed mold. Drug-silicone pills are extracted using a biopsy punch, and drug-PCL pills are extracted with a razor blade. Pills are then spray-coated with a pan coater. A cross-sectional image of a PCL-coated drug-PCL pill is shown. FIG. 11B. In vitro release of sofosbuvir from a drug pill in water with varying molecular weight of PCL. FIG. 11C. In vitro release of daclatasvir from a drug pill in water with varying molecular weight of PCL and PCL coating. FIG. 11D. In vitro release of ledipasvir from a drug pill in acetonitrile with varying silicone hardness. FIG. 11E. In vitro release of ribavirin from a drug pill in water with molecular weight of PCL and drug loading percentage. Error bars represent SD for n=3 samples.
LA-DAAS prototyping and in vitro drug release. LA-DAAS were assembled and in vitro drug release was evaluated by High-Performance Liquid Chromatography (HPLC) as previously described, with modifications including novel formulations for DAAs (FIGS. 14A-14B).(17) The following drugs were acquired: sofosbuvir (Hefei Hirisun Pharmatech Co., Ltd, Hefei, China), daclatasvir and ledipasvir (Hangzhou APIChem Technology Co, Ltd., Hangzhou, Zhejiang, China), and ribavirin (ChemShuttle, Hayward, CA). […] Drug loading percentages were determined relative to the final polymer mixture weight: sofosbuvir (50%), daclastasvir (40%), ledipasvir (40%), and ribavirin (40%). […] Drug concentrations were then analyzed using an Agilent 1260 Infinity II HPLC system. […] For evaluation of the safety and residence time of the LA-DAAS, the animals were clinically assessed twice a day for evidence of GI obstruction including inappetence, abdominal distension, lack of stool, and vomiting. […]

polymer protection (drug extracted after SGF, normalized to pills placed directly in acetonitrile) ([1]; drug-silicone pill) | stability in SGF ([2]; SGF pH=2, no HPLC signal detected at t=0) | Structure (SMILES) | polymer protection (drug extracted after SGF, normalized to pills placed directly in acetonitrile) ([1]; drug-PCL pill) | degradation in SGF ([2]; SGF pH=2, 37° C., 200 rpm, within 7 days) | in vitro release rate from drug-polymer pills (trend, words) [3]
– | – | CC(C)OC(=O)[C@H](C)N[P@](=O)(OC[C@H]1O[C@@H](n2ccc(=O)[nH]c2=O)[C@](C)(F)[C@@H]1O)Oc1ccccc1 [sofosbuvir] | 89.75% | 95% | increased as the molecular weight of PCL increased from 25,000 to 80,000; also recorded: Increasing the surface area to volume ratio of the pill also increased the sofosbuvir release rate; also recorded: increases the release rate of sofosbuvir; also recorded: Drug release increases as the SA/V ratio increases
– | – | NC(=O)c1ncn([C@@H]2O[C@H](CO)[C@@H](O)[C@H]2O)n1 [ribavirin] | 87.11% | – | increased at higher PCL molecular weight and with a higher drug loading percentage
98.96% | degraded immediately in acid | COC(=O)N[C@H](C(=O)N1CC2(CC2)C[C@H]1c1ncc(-c2ccc3c(c2)C(F)(F)c2cc(-c4ccc5nc([C@@H]6[C@H]7CC[C@H](C7)N6C(=O)[C@@H](NC(=O)OC)C(C)C)[nH]c5c4)ccc2-3)[nH]1)C(C)C [ledipasvir] | – | – | faster release rate
